Publication PMC5218480 (PLoS ONE, 2017)

Test system: MV-4-11 cells
Assay: Gene expression microarray analysis (Affymetrix PrimeView) and GSEA
Type: cell-based, human
Set-up: RFU PODN (11730768_x_at) / Fold change /veh PODN (11730768_x_at) / RFU LINC00158 (11744669_a_at) / Fold change /veh LINC00158 (11744669_a_at) / RFU DUSP10 (11751237_a_at) / Fold change /veh DUSP10 (11751237_a_at) / RFU ID3 (11757404_x_at) / Fold change /veh ID3 (11757404_x_at) / RFU PLEKHG5 (11737974_s_at) / Fold change /veh PLEKHG5 (11737974_s_at) / RFU LRRC4B (11730491_at) / Fold change /veh LRRC4B (11730491_at) / RFU GIMAP4 (11747438_a_at) / Fold change /veh GIMAP4 (11747438_a_at) / RFU KRT8 (11758183_x_at) / Fold change /veh KRT8 (11758183_x_at) / RFU CNN1 (11734310_a_at) / Fold change /veh CNN1 (11734310_a_at) / RFU VPS37D (11726825_at) / Fold change /veh VPS37D (11726825_at) / RFU C10orf10 (11716522_x_at) / Fold change /veh C10orf10 (11716522_x_at) / RFU KIR2DL2 /// KIR2DL4 /// KIR2DL5A /// KIR2DL5B /// KIR2DS1 /// KIR2DS2 /// KIR2DS3 /// KIR2DS4 /// KIR3DL3 /// KIR3DL3 /// KIR3DS1 (11738374_at) / Fold change /veh KIR2DL2 /// KIR2DL4 /// KIR2DL5A /// KIR2DL5B /// KIR2DS1 /// KIR2DS2 /// KIR2DS3 /// KIR2DS4 /// KIR3DL3 /// KIR3DL3 /// KIR3DS1 (11738374_at) / RFU C1QL1 (11718748_at) / Fold change /veh C1QL1 (11718748_at) / RFU TMPRSS4 (11747572_a_at) / Fold change /veh TMPRSS4 (11747572_a_at) / RFU HAMP (11756126_x_at) / Fold change /veh HAMP (11756126_x_at) / RFU RNFT2 (11725882_a_at) / Fold change /veh RNFT2 (11725882_a_at) / RFU NR4A2 (11747474_a_at) / Fold change /veh NR4A2 (11747474_a_at) / RFU ABCC12 (11746883_a_at) / Fold change /veh ABCC12 (11746883_a_at) / RFU TMEM136 (11760407_x_at) / Fold change /veh TMEM136 (11760407_x_at) / RFU CLDN22 /// WWC2 (11732394_at) / Fold change /veh CLDN22 /// WWC2 (11732394_at) / RFU HLA-DPB1 (11760878_x_at) / Fold change /veh HLA-DPB1 (11760878_x_at) / RFU SPINT1 (11716480_a_at) / Fold change /veh SPINT1 (11716480_a_at) / RFU GAP43 (11754022_s_at) / Fold change /veh GAP43 (11754022_s_at) / RFU A4GNT (11735810_at) / Fold change /veh A4GNT (11735810_at) / RFU PRB3 (11715151_x_at) / Fold change /veh PRB3 (11715151_x_at) / RFU TUBB4B (11761932_at) / Fold change /veh TUBB4B (11761932_at) / RFU CAPN14 (11732068_a_at) / Fold change /veh CAPN14 (11732068_a_at) / RFU TMCC2 (11721928_a_at) / Fold change /veh TMCC2 (11721928_a_at) / RFU IRGQ (11745062_a_at) / Fold change /veh IRGQ (11745062_a_at) / RFU FAM174B (11720279_a_at) / Fold change /veh FAM174B (11720279_a_at) / RFU TMPRSS4 (11748680_a_at) / Fold change /veh TMPRSS4 (11748680_a_at) / RFU FAM212B (11763350_a_at) / Fold change /veh FAM212B (11763350_a_at) / RFU PLEKHG5 (11743358_a_at) / Fold change /veh PLEKHG5 (11743358_a_at) / RFU ZSCAN30 (11745921_a_at) / Fold change /veh ZSCAN30 (11745921_a_at) / RFU CMKLR1 (11741424_a_at) / Fold change /veh CMKLR1 (11741424_a_at) / RFU LOC101060620 /// MAPK8IP1 (11723275_at) / Fold change /veh LOC101060620 /// MAPK8IP1 (11723275_at) / RFU SPTSSB (11747773_x_at) / Fold change /veh SPTSSB (11747773_x_at) / RFU PRSS12 (11739890_at) / Fold change /veh PRSS12 (11739890_at) / RFU BIN1 (11741810_x_at) / Fold change /veh BIN1 (11741810_x_at) / RFU WNT11 (11732464_a_at) / Fold change /veh WNT11 (11732464_a_at) / RFU C10orf10 (11716521_a_at) / Fold change /veh C10orf10 (11716521_a_at) / RFU C5orf56 (11738089_at) / Fold change /veh C5orf56 (11738089_at) / RFU CYB561 (11721691_x_at) / Fold change /veh CYB561 (11721691_x_at) / RFU ANKRD19P (11752326_a_at) / Fold change /veh ANKRD19P (11752326_a_at) / RFU OR2T12 /// OR2T33 /// OR2T8 (11738714_s_at) / Fold change /veh OR2T12 /// OR2T33 /// OR2T8 (11738714_s_at) / RFU VCAN (11748164_a_at) / Fold change /veh VCAN (11748164_a_at) / RFU JSRP1 (11732532_at) / Fold change /veh JSRP1 (11732532_at) / RFU KRTAP10-11 (11738290_x_at) / Fold change /veh KRTAP10-11 (11738290_x_at) / RFU MYO3A (11730013_a_at) / Fold change /veh MYO3A (11730013_a_at) / RFU EBF3 (11725865_a_at) / Fold change /veh EBF3 (11725865_a_at) / RFU CAMK2N1 (11719241_x_at) / Fold change /veh CAMK2N1 (11719241_x_at) / RFU C5orf56 (11738088_a_at) / Fold change /veh C5orf56 (11738088_a_at) / RFU OLFML3 (11715873_a_at) / Fold change /veh OLFML3 (11715873_a_at) / RFU LOC100653217 /// NTM (11731650_a_at) / Fold change /veh LOC100653217 /// NTM (11731650_a_at) / RFU MAPK11 (11762145_a_at) / Fold change /veh MAPK11 (11762145_a_at) / RFU FIZ1 (11724087_x_at) / Fold change /veh FIZ1 (11724087_x_at) / RFU OASL (11726364_x_at) / Fold change /veh OASL (11726364_x_at) / RFU SOX15 (11748057_x_at) / Fold change /veh SOX15 (11748057_x_at) / RFU CD79A (11719716_a_at) / Fold change /veh CD79A (11719716_a_at) / RFU HIST1H1D (11736915_at) / Fold change /veh HIST1H1D (11736915_at) / RFU CASKIN2 (11723855_a_at) / Fold change /veh CASKIN2 (11723855_a_at) / RFU LOC730098 (11760151_x_at) / Fold change /veh LOC730098 (11760151_x_at) / RFU OR4N2 (11742367_at) / Fold change /veh OR4N2 (11742367_at) / RFU PRRT2 (11749266_a_at) / Fold change /veh PRRT2 (11749266_a_at) / RFU SNX32 (11753110_a_at) / Fold change /veh SNX32 (11753110_a_at) / RFU CDHR5 (11726645_a_at) / Fold change /veh CDHR5 (11726645_a_at) / RFU RCAN1 (11760418_a_at) / Fold change /veh RCAN1 (11760418_a_at) / RFU FAM167A (11723789_a_at) / Fold change /veh FAM167A (11723789_a_at) / RFU FAM26E (11764081_at) / Fold change /veh FAM26E (11764081_at) / RFU ISYNA1 (11749810_s_at) / Fold change /veh ISYNA1 (11749810_s_at) / RFU ACY1 (11761880_at) / Fold change /veh ACY1 (11761880_at) / RFU 11764098_at / Fold change /veh 11764098_at / RFU SAMD14 (11745864_x_at) / Fold change /veh SAMD14 (11745864_x_at) / RFU NPB (11741838_a_at) / Fold change /veh NPB (11741838_a_at) / RFU TMPRSS6 (11731388_a_at) / Fold change /veh TMPRSS6 (11731388_a_at) / RFU KRTAP10-2 (11738614_at) / Fold change /veh KRTAP10-2 (11738614_at) / RFU ARHGAP8 /// PRR5-ARHGAP8 (11727945_x_at) / Fold change /veh ARHGAP8 /// PRR5-ARHGAP8 (11727945_x_at) / RFU KRTAP5-7 /// NADSYN1 (11734609_at) / Fold change /veh KRTAP5-7 /// NADSYN1 (11734609_at) / RFU RASL12 (11751679_a_at) / Fold change /veh RASL12 (11751679_a_at) / RFU CDKN2B (11736163_a_at) / Fold change /veh CDKN2B (11736163_a_at) / RFU PRF1 (11729649_at) / Fold change /veh PRF1 (11729649_at) / RFU, ZNF638 /// ZNF638-IT1 / Fold change vs veh, ZNF638 /// ZNF638-IT1 / RFU, PANK3 / Fold change vs veh, PANK3 / RFU, SH3YL1 / Fold change vs veh, SH3YL1 / RFU, ZEB2 / Fold change vs veh, ZEB2 / RFU, NRIP1 / Fold change vs veh, NRIP1 / RFU, PTTG1IP / Fold change vs veh, PTTG1IP / RFU, CAPN2 / Fold change vs veh, CAPN2 / RFU, MED14 / Fold change vs veh, MED14 / RFU, SNORA58 / Fold change vs veh, SNORA58 / RFU, C1orf63 / Fold change vs veh, C1orf63 / RFU, LRRFIP1 / Fold change vs veh, LRRFIP1 / RFU, NDUFAF7 / Fold change vs veh, NDUFAF7 / RFU, SLC12A2 / Fold change vs veh, SLC12A2 / RFU, IBTK / Fold change vs veh, IBTK / RFU, ESF1 / Fold change vs veh, ESF1 / Fold change vs veh, TMEM50B / RFU, TAOK1 / Fold change vs veh, TAOK1 / RFU, ACBD3 / Fold change vs veh, ACBD3 / RFU, TMA16 / Fold change vs veh, TMA16 / RFU, RWDD3 / Fold change vs veh, RWDD3 / RFU, BCAT1 / Fold change vs veh, BCAT1 / RFU, EDEM3 / Fold change vs veh, EDEM3 / RFU, TMEM33 / Fold change vs veh, TMEM33 / RFU, WDR75 / Fold change vs veh, WDR75 / RFU, AHCTF1 / Fold change vs veh, AHCTF1 / RFU, TFRC / Fold change vs veh, TFRC / RFU, ZDHHC17 / Fold change vs veh, ZDHHC17 / RFU, NOM1 / Fold change vs veh, NOM1 / RFU, ARL8B / Fold change vs veh, ARL8B / RFU, ZBTB11 / Fold change vs veh, ZBTB11 / RFU, TAMM41 / Fold change vs veh, TAMM41 / RFU, KIAA1704 /// LOC100996395 / Fold change vs veh, KIAA1704 /// LOC100996395 / RFU, ING1 / Fold change vs veh, ING1 / RFU, TRMT61B / Fold change vs veh, TRMT61B / RFU, FUBP3 / Fold change vs veh, FUBP3 / RFU, TP53 / Fold change vs veh, TP53 / RFU, TNKS2 / Fold change vs veh, TNKS2 / RFU, ZFP14 / Fold change vs veh, ZFP14 / RFU, ACTR2 / Fold change vs veh, ACTR2 / RFU, PPP3R1 / Fold change vs veh, PPP3R1 / RFU, PIK3R1 / Fold change vs veh, PIK3R1 / RFU, HNRNPA1 / Fold change vs veh, HNRNPA1 / RFU, RNF170 / Fold change vs veh, RNF170 / RFU, ZNF28 / Fold change vs veh, ZNF28 / RFU, RNGTT / Fold change vs veh, RNGTT / RFU, OGT / Fold change vs veh, OGT / RFU, BRD1 / Fold change vs veh, BRD1 / RFU, MARS / Fold change vs veh, MARS / RFU, ZNF655 / Fold change vs veh, ZNF655 / RFU, FAHD1 / Fold change vs veh, FAHD1 / RFU, BDP1 / Fold change vs veh, BDP1 / RFU, LRRCC1 / Fold change vs veh, LRRCC1 / RFU, ARID1A / Fold change vs veh, ARID1A / RFU, ZNF146 / Fold change vs veh, ZNF146 / RFU, ZNF330 / Fold change vs veh, ZNF330 / RFU, GPN3 / Fold change vs veh, GPN3 / RFU, C9orf123 / Fold change vs veh, C9orf123 / RFU, N4BP2L2 / Fold change vs veh, N4BP2L2 / RFU, ARFIP1 / Fold change vs veh, ARFIP1 / RFU, FAM179B / Fold change vs veh, FAM179B / RFU, BCL10 / Fold change vs veh, BCL10 / RFU, UHRF1BP1L / Fold change vs veh, UHRF1BP1L / RFU, BET1 / Fold change vs veh, BET1 / RFU, CNOT2 / Fold change vs veh, CNOT2 / RFU, ZNF268 / Fold change vs veh, ZNF268 / Fold change vs veh, ZNF507 / RFU, DGCR2 / Fold change vs veh, DGCR2 / RFU, WDSUB1 / Fold change vs veh, WDSUB1 / Fold change vs veh, HSP90B1 /// MIR3652 / RFU, ADSS / Fold change vs veh, ADSS / RFU, GK / Fold change vs veh, GK / RFU, ZNF148 / Fold change vs veh, ZNF148 / RFU, TAF9 / Fold change vs veh, TAF9 / RFU, SLC1A5 / Fold change vs veh, SLC1A5 / RFU, SLMO2 / Fold change vs veh, SLMO2 / RFU, ABCC4 / Fold change vs veh, ABCC4 / RFU, LOC101060439 /// RAP1B / Fold change vs veh, LOC101060439 /// RAP1B / RFU, RFX7 / Fold change vs veh, RFX7 / RFU, GTPBP10 / Fold change vs veh, GTPBP10 / RFU, CNEP1R1 / Fold change vs veh, CNEP1R1 / RFU, BIVM-ERCC5 /// ERCC5 / Fold change vs veh, BIVM-ERCC5 /// ERCC5 / RFU, ILF3 / Fold change vs veh, ILF3 / RFU 11762660_at / Fold change /veh 11762660_at / RFU VCAN (11757783_s_at) / Fold change /veh VCAN (11757783_s_at) / RFU DDX43 (11728927_at) / Fold change /veh DDX43 (11728927_at) / RFU KRT8 (11758188_x_at) / Fold change /veh KRT8 (11758188_x_at) / RFU NKD1 (11759106_at) / Fold change /veh NKD1 (11759106_at) / RFU SRD5A1 (11742802_a_at) / Fold change /veh SRD5A1 (11742802_a_at) / RFU TPSAB1 /// TPSB2 (11721975_s_at) / Fold change /veh TPSAB1 /// TPSB2 (11721975_s_at) / RFU GSTM3 (11746129_a_at) / Fold change /veh GSTM3 (11746129_a_at) / RFU IL23R (11737362_x_at) / Fold change /veh IL23R (11737362_x_at) / RFU TMEM51 (11727254_a_at) / Fold change /veh TMEM51 (11727254_a_at) / RFU PIWIL2 (11732686_x_at) / Fold change /veh PIWIL2 (11732686_x_at) / RFU ORM1 (11744905_x_at) / Fold change /veh ORM1 (11744905_x_at) / RFU CCDC152 (11743942_at) / Fold change /veh CCDC152 (11743942_at) / RFU ECM1 (11717891_a_at) / Fold change /veh ECM1 (11717891_a_at) / RFU IL23R (11748794_a_at) / Fold change /veh IL23R (11748794_a_at) / RFU TNFAIP8L3 (11732012_x_at) / Fold change /veh TNFAIP8L3 (11732012_x_at) / RFU MBOAT4 (11741988_at) / Fold change /veh MBOAT4 (11741988_at) / RFU 11764193_at / Fold change /veh 11764193_at / RFU TMEM53 (11763286_at) / Fold change /veh TMEM53 (11763286_at) / RFU MAGEB2 (11727129_at) / Fold change /veh MAGEB2 (11727129_at) / RFU TMEM200A (11744735_a_at) / Fold change /veh TMEM200A (11744735_a_at) / RFU CCDC152 (11751479_a_at) / Fold change /veh CCDC152 (11751479_a_at) / RFU FAM211A (11726209_a_at) / Fold change /veh FAM211A (11726209_a_at) / RFU RGS16 (11746705_a_at) / Fold change /veh RGS16 (11746705_a_at) / RFU VCAN (11755009_s_at) / Fold change /veh VCAN (11755009_s_at) / RFU RHOB (11743442_s_at) / Fold change /veh RHOB (11743442_s_at) / RFU RGS16 (11720943_a_at) / Fold change /veh RGS16 (11720943_a_at) / RFU RGS16 (11720944_at) / Fold change /veh RGS16 (11720944_at) / RFU, VPS4B / Fold change vs veh, VPS4B / RFU, CREB1 / Fold change vs veh, CREB1 / RFU, DNAJC13 / Fold change vs veh, DNAJC13 / RFU, GNAQ / Fold change vs veh, GNAQ / RFU, CDK5R1 / Fold change vs veh, CDK5R1 / RFU, ZRANB3 / Fold change vs veh, ZRANB3 / RFU, CUL4A / Fold change vs veh, CUL4A / RFU, CCNY / Fold change vs veh, CCNY / RFU, UFL1 / Fold change vs veh, UFL1 / RFU, COG3 / Fold change vs veh, COG3 / RFU, DIAPH2 / Fold change vs veh, DIAPH2 / RFU, SKA2 / Fold change vs veh, SKA2 / RFU, AFF3 / Fold change vs veh, AFF3 / RFU, LMF1 / Fold change vs veh, LMF1 / RFU, IPO11 / Fold change vs veh, IPO11 / RFU, DFFB / Fold change vs veh, DFFB / RFU, FOXP1 / Fold change vs veh, FOXP1 / RFU, CARD8 / Fold change vs veh, CARD8 / RFU, STRN3 / Fold change vs veh, STRN3 / RFU, ADK / Fold change vs veh, ADK / RFU, RASSF2 / Fold change vs veh, RASSF2 / RFU, WIPF1 / Fold change vs veh, WIPF1 / RFU, LARP1B / Fold change vs veh, LARP1B / RFU, RASA1 / Fold change vs veh, RASA1 / RFU, RB1 / Fold change vs veh, RB1 / RFU, PPFIA1 / Fold change vs veh, PPFIA1 / RFU, MAT2A / Fold change vs veh, MAT2A / RFU, CCT5 / Fold change vs veh, CCT5 / RFU, WDR92 / Fold change vs veh, WDR92 / RFU, CUX1 / Fold change vs veh, CUX1 / RFU, TTC7A / Fold change vs veh, TTC7A / RFU, TMEM135 / Fold change vs veh, TMEM135 / RFU, DEPTOR / Fold change vs veh, DEPTOR / RFU, CPM / Fold change vs veh, CPM / RFU, DNAJB6 / Fold change vs veh, DNAJB6 / RFU, CACNA2D3 / Fold change vs veh, CACNA2D3 / RFU, DTX4 / Fold change vs veh, DTX4 / RFU, TFCP2 / Fold change vs veh, TFCP2 / RFU, GMCL1 /// GMCL1P1 / Fold change vs veh, GMCL1 /// GMCL1P1 / RFU, AEBP2 / Fold change vs veh, AEBP2 / RFU, SNHG1 /// SNORD22 /// SNORD25 /// SNORD26 /// SNORD27 /// SNORD28 /// SNORD29 /// SNORD31 / Fold change vs veh, SNHG1 /// SNORD22 /// SNORD25 /// SNORD26 /// SNORD27 /// SNORD28 /// SNORD29 /// SNORD31 / Fold change (Aza/veh), C12orf56 (ProbeSet 11735607_a_at) / Fold change (ACY-1035/veh), C12orf56 (ProbeSet 11735607_a_at) / Fold change (Aza/veh), FGFR1OP (ProbeSet 11751329_s_at) / Fold change (ACY-1035/veh), FGFR1OP (ProbeSet 11751329_s_at) / Fold change (Aza/veh), VPS36 (ProbeSet 11739960_a_at) / Fold change (ACY-1035/veh), VPS36 (ProbeSet 11739960_a_at) / RFU SYPL1 (11715823_x_at) / Fold change /veh SYPL1 (11715823_x_at) / RFU IGFBP7 (11715501_s_at) / Fold change /veh IGFBP7 (11715501_s_at) / RFU REEP3 (11722064_at) / Fold change /veh REEP3 (11722064_at) / RFU IGLL1 (11728026_x_at) / Fold change /veh IGLL1 (11728026_x_at): dose or concentration left out as unconfirmed
Conditions: MV-4-11 cells, 48 hours

Compound: Nc1ccc(-c2cccs2)cc1NC(=O)c1ccc2c(c1)cc(C1CC1)n2CCN1CCOCC1 [ACY-1035]
- RFU BIN1 (11741810_x_at): 33.72 RFU
